Laboratory results reported in the SangsterLogP compilation.

What was measured:
[1] = method code SF-RC, from DOI: 10.1016/j.nucmedbio.2005.06.001, PMID: 16253804; conditions: pH 7.4
[2] = method code SF-AS, from DOI: 10.1039/p29900001191; conditions: pH 12.0
[3] = method code SF-RC, from DOI: 10.1002/syn.21606, PMID: 22927303; conditions: pH 7.4
[4] = method code SF-HPLC, from DOI: 10.1016/j.bmc.2011.11.059, PMID: 22189276; conditions: pH 7.4
[5] = method code SF-AS, from DOI: 10.1002/ps.2780140302; conditions: pH 5.0
[6] = method code SF-AS, from DOI: 10.1080/1071576031000148736, PMID: 14567446
[7] = method code SF-HPLC, from DOI: 10.1016/j.jpba.2011.06.023, PMID: 21782368; conditions: pH 7.4
[8] = not given; remark: listed apart in the source
[9] = method code SF-RC, from DOI: 10.1021/jm301492y, PMID: 23214511; conditions: pH 7.4
[10] = method code SF, from DOI: 10.1016/j.ijpharm.2011.07.043, PMID: 21839822; conditions: pH 7.4
[11] = method code RP-HPLC, from DOI: 10.1021/jm970292n, PMID: 9371243
[12] = method code SF-RC, from DOI: 10.1016/j.ejmech.2014.07.070, PMID: 25063945; conditions: pH 7.4
[13] = method code SF-AS, from PMID: 8053967; conditions: pH 7.4
[14] = method code SF-HPLC, from DOI: 10.1016/j.apradiso.2007.04.014, PMID: 17574425; conditions: pH 7.4
[15] = method code SF-RC, from DOI: 10.1016/j.bmc.2015.06.036, PMID: 26145817; conditions: pH 7.4
[16] = method code SF-AS, from DOI: 10.1002/jps.2600610435, PMID: 5014327
[17] = method code SF-RC, from DOI: 10.1016/j.bmcl.2015.05.048, PMID: 26073008; conditions: pH 7.4
[18] = method code SF-AS, from DOI: 10.1016/s0014-827x(98)00024-x, PMID: 9679281
[19] = method code SF-HPLC, from DOI: 10.1039/p29890001935
[20] = not given; remark: listed apart in the source
[21] = method code SF-RC, from DOI: 10.1021/acs.jmedchem.6b00849, PMID: 27690428; conditions: pH 7.4
[22] = not given; remark: listed apart in the source
[23] = method code SF-AS, from DOI: 10.1016/0223-5234(94)90120-1; conditions: pH 7.4
[24] = not given; remark: listed apart in the source
[25] = not given; remark: listed apart in the source
[26] = not given; remark: listed apart in the source
[27] = not given; remark: listed apart in the source
[28] = not given; remark: listed apart in the source
[29] = method code SF-AS, from DOI: 10.1016/s0022-3565(25)32601-7, PMID: 7194909
[30] = method code SF-HPLC, from DOI: 10.1584/jpestics.11.469
[31] = method code SF-RC, from DOI: 10.1021/jm070025+, PMID: 17411026; conditions: pH 7.4

Q: With `CNc1ccc(C=Cc2ccc(OCCOCCOCCF)cc2)cc1` as the molecule, how does the logD [1] read?
A: 2.41

Q: For `N#Cc1cc(-c2ccccc2)nnc1NCCN1CCOCC1`, which logD [2] is on record?
A: 1.89

Q: With `CCc1cc2cc(C(=O)C3CCC(OC)CC3)ccc2nc1F` (stereo not drawn) as the molecule, how does the logD [3] read?
A: 3.54

Q: Which logD [4] does the source give for `CCOC(=O)COC(=O)NCCCC(C)Nc1cc(OC)cc2cccn12` (stereo not drawn) here?
A: 3.09

Q: With `O=P(Oc1ccccc1)(Oc1ccccc1)Oc1ccccc1` as the molecule, how does the logP read?
A: 3.9

Q: With `OC(c1ccccc1)(c1cncnc1)c1ccc(Cl)cc1Cl` (stereo not drawn) as the molecule, how does the logD [5] read?
A: 2.56

Q: Which logP [6] does the source give for `CC(=O)Oc1cc2c(cc1Cl)C(c1ccccc1C(=O)O)c1cc(Cl)c(OC(C)=O)cc1O2` here?
A: 3.51

Q: For `COC(=O)CC(CNC(=O)OC(C)(C)C)c1ccc(Cl)cc1` (stereo not drawn), which logD [7] is on record?
A: 1.5

Q: Which logP [8] does the source give for `O=C1CC[C@@]2(O)[C@H]3Cc4ccc(O)c5c4[C@@]2(CCN3CC2CC2)[C@H]1O5` here?
A: 1.12

Q: Which logD [9] does the source give for `CCCCCCNC(=O)c1ccc(O)c(-c2ccccc2)c1` here?
A: 3.67

Q: For `c1ccc(Cc2cc(-c3ccccc3)nnc2NCCN2CCOCC2)cc1`, which logD [2] is on record?
A: 3.65

Q: Which logD [9] does the source give for `O=C(NC1CCCCC1)c1ccc(O)c(-c2ccccc2)c1` here?
A: 2.85

Q: For `CCCCCCCCCCNC(=O)c1ccccc1O`, which logD [10] is on record?
A: 4.53

Q: Which logP [11] does the source give for `O=C1c2c(O)cccc2C(c2ccccc2)c2cccc(O)c21` here?
A: 3.81

Q: With `CNc1ccc(/C=C/C(=O)/C=C/c2ccc(F)cc2)cc1` as the molecule, how does the logD [12] read?
A: 2.69

Q: Which logD [4] does the source give for `CCCCCCOC(=O)NCCCC(C)Nc1cc(OC)cc2cccnc12` (stereo not drawn) here?
A: 3.02

Q: For `O=C(CCN1CCOCC1)CN1C(=O)CC2(CCc3ccccc32)C1=O` (stereo not drawn), which logD [13] is on record?
A: 1.26

Q: Which logP [8] does the source give for `C=CCN1CC[C@]23c4c5ccc(O)c4O[C@H]2C(=O)CC[C@@]3(O)[C@H]1C5` here?
A: 1.53

Q: For `O=C(CCl)Nc1cc2c(Nc3cc(Cl)c(Cl)cc3F)ncnc2cc1OCCOCCOCCOCCF`, which logD [14] is on record?
A: 4.64

Q: Which logD [15] does the source give for `Cc1cc(N(C)CCCCF)n2nc(C)c(-c3ccc(Cl)cc3Cl)c2n1` here?
A: 2.75

Q: Which logP [16] does the source give for `COc1cc(C(=O)OC2CCC[C@@H]3CN(C)CC[C@H]23)cc(OC)c1OC` (stereo partly drawn) here?
A: 0.58

Q: Which logP does the source give for `Cc1ccc(OP(=O)(Oc2ccccc2)Oc2ccccc2)cc1` here?
A: 4.4

Q: For `O=C(CCN1CCOCC1)CN1C(=O)CC2(CCCc3ccccc32)C1=O` (stereo not drawn), which logD [13] is on record?
A: 1.63

Q: With `COc1ccc(/C=C/c2cc(=O)c3cc(I)ccc3o2)cc1` as the molecule, how does the logD [17] read?
A: 2.15

Q: Which logP [18] does the source give for `Cc1[nH]c2ccccc2c1Cc1n[nH]c(=S)n1-c1cccc2ccccc12` here?
A: 3.02

Q: With `COc1cccc2cc3cccc(OC)c3c(OC)c12` as the molecule, how does the logP [11] read?
A: 4.1

Q: With `CCCCCCCCCCCCNC(=O)c1ccccc1O` as the molecule, how does the logD [10] read?
A: 5.37

Q: For `Cc1ccccc1C1OCC2ON=C(c3ccccc3)C2CO1` (stereo not drawn), which logP [19] is on record?
A: 2.72

Q: With `C[C@]12CC[C@@H](O)C[C@@H]1CC[C@@H]1[C@@H]2CC[C@]2(C)[C@@H](O)CC[C@@H]12` as the molecule, how does the logP [20] read?
A: 4.16

Q: Which logD [21] does the source give for `N#Cc1ccc(N(Cc2ccc(I)cc2)c2cncnc2)cc1` here?
A: 2.16

Q: For `C[C@]12CC[C@H](O)CC1=CC[C@@H]1[C@@H]2CC[C@]2(C)C(=O)CC[C@@H]12`, which logP [20] is on record?
A: 3.23

Q: Which logP [22] does the source give for `CO[C@@]12CCC(=O)[C@@H]3Oc4c(O)ccc5c4[C@@]31CCN(C)[C@@H]2C5` here?
A: 0.6

Q: For `S=C1SCN(CCc2ccccc2)CN1CCc1ccccc1`, which logD [23] is on record?
A: 5.3

Q: For `CN(C)c1ccc(/C=C/C(=O)/C=C/c2ccc(F)cc2)cc1`, which logD [12] is on record?
A: 3.89

Q: Which logP [24] does the source give for `CNc1nc(NCCCN(C)C)c2sc(-c3ccc(C(=O)C(F)(F)F)cc3)cc2n1` here?
A: 4.6

Q: Which logP [25] does the source give for `CC1(C)C=C(C(=O)NCCCN2C(=O)c3ccccc3C2=O)C(C)(C)N1` here?
A: 1.63

Q: For `O=C(CCl)Nc1cc2c(Nc3cc(Cl)c(Cl)cc3F)ncnc2cc1OCCOCCF`, which logD [14] is on record?
A: 4.3

Q: Which logD [3] does the source give for `CCc1cc2cc(C(=O)C3CCC(OC)CC3)ccc2nc1C` (stereo not drawn) here?
A: 3.38

Q: Which logP [26] does the source give for `COc1cc2nc(N(C)CCCNC(=O)C3CCCO3)nc(N)c2cc1OC` (stereo not drawn) here?
A: 1.93

Q: With `CC(n1ccnc1)C(O)(c1ccc(F)cc1)c1ccc(F)cc1` (stereo not drawn) as the molecule, how does the logP [27] read?
A: 3.13

Q: With `Cc1cccc(OC(=O)N(C)SN(C)C(=O)Oc2ccc3c(c2)OCO3)c1` as the molecule, how does the logP [28] read?
A: 2.66

Q: With `OC1(c2ccc(Cl)cc2)c2ccccc2C2=NCCCN21` (stereo not drawn) as the molecule, how does the logP [29] read?
A: 1.41

Q: With `CNc1nc(NCCCN(C)C)c2sc(-c3cccc(C(=O)C(F)(F)F)c3)cc2n1` as the molecule, how does the logP [24] read?
A: 4.3

Q: With `CN(SN(C)C(=O)Oc1cccc2ccccc12)C(=O)Oc1ccc2c(c1)OCO2` as the molecule, how does the logP [28] read?
A: 2.83

Q: For `CCOC(=O)C(C)Oc1ccc(Oc2cnc3cc(C)ccc3n2)cc1` (stereo not drawn), which logP [30] is on record?
A: 4.11

Q: Which logP [26] does the source give for `COC(=O)C1=C(C)NC(C)=C(C(=O)OCC(C)C)C1c1cccc([N+](=O)[O-])c1` (stereo not drawn) here?
A: 3.23

Q: For `FC(F)(F)c1ccccc1C1OCC2ON=C(c3ccccc3)C2CO1` (stereo not drawn), which logP [19] is on record?
A: 4.31

Q: Which logD [31] does the source give for `CNc1ccc(/C=C/c2cnc(OCCOCCOCCF)c(I)c2)cc1` here?
A: 2.54

Q: Which logP [25] does the source give for `COc1ccc(C(C)NCCC(c2ccccc2)c2ccccc2)cc1OC` (stereo not drawn) here?
A: 5.74

Q: With `Cc1cc(N(C)CCOCCF)n2nc(C)c(-c3ccc(Cl)cc3Cl)c2n1` as the molecule, how does the logD [15] read?
A: 2.3

Q: For `CNc1ccc(C=Cc2ccc(OCCOCCF)cc2)cc1`, which logD [1] is on record?
A: 2.52

Q: With `CCOC(=O)C(C)Oc1ccc(Oc2cnc3cc(F)ccc3n2)cc1` (stereo not drawn) as the molecule, how does the logP [30] read?
A: 3.65

Q: Which logP [27] does the source give for `CC(=O)Oc1ccc(C(O)(Cn2ccnc2)c2ccc(-c3ccncc3)cc2)cc1` (stereo not drawn) here?
A: 2.61

Q: Which logD [31] does the source give for `CN(C)c1ccc(/C=C/c2cnc(OCCOCCOCCF)c(I)c2)cc1` here?
A: 2.59

Q: With `c1ccc(Nc2nnc(Cn3ccc4ccccc43)s2)cc1` as the molecule, how does the logP [18] read?
A: 3.73

Q: Which logP [29] does the source give for `OC1(c2ccc(Cl)cc2)c2ccccc2C2=NCCCCN21` (stereo not drawn) here?
A: 1.15

Q: With `CCOC(=O)CC(CNC(=O)OC(C)(C)C)c1ccc(Cl)cc1` (stereo not drawn) as the molecule, how does the logD [7] read?
A: 2

Q: Which logP [22] does the source give for `CO[C@@]12CCC(=O)[C@]3(C)Oc4c(O)ccc5c4[C@@]31CCN(C)[C@@H]2C5` here?
A: 1.12

Q: For `O=c1cc(/C=C/c2ccc(O)cc2)oc2ccc(I)cc12`, which logD [17] is on record?
A: 1.87

Q: For `OC(c1ccc(F)cc1)(c1cncnc1)c1ccccc1Cl` (stereo not drawn), which logD [5] is on record?
A: 2.2

Q: With `N#Cc1ccc(N(Cc2ccc(I)cc2)n2ccnc2)cc1` as the molecule, how does the logD [21] read?
A: 1.59

Q: With `O=C(O)c1ccccc1C1c2cc(Cl)c(O)cc2Oc2cc(O)c(Cl)cc21` as the molecule, how does the logP [6] read?
A: 2.62

Q: Which logD [23] does the source give for `S=C1SCN(CCc2ccccc2)CN1Cc1ccccc1` here?
A: 4.7
